Results on four molecules are retold here after patent US7465556B2, “Method of immunoassay tartrate resistant acid phosphatase 5b and kit to be used therein” (Nitto Boseki Co., Ltd., priority 2003, dated 2008).

In data set [1] the test system is TRACP 5b. As to the kind of experiment: Enzymatic activity of TRACP 5b bound to immobilized anti-TRACP 5b antibody plate, end-point absorbance. The data set is classed as biochemical, human. On the procedure:
(§1) The pH of a buffer solution containing a substrate CNPP was varied from 5.6 to 6.8 and the activity of TRACP 5b and TRACP 5a for this substrate was assayed. This substrate buffer solution had the following composition: CNPP 5 mM, Mes 0.1 M and sodium tartrate 40 mM. Its pH was adjusted to values varying from 5.6 to 6.8 by steps of 0.2. TRACP 5b and TRACP 5a used as samples were prepared by separating human serum by the use of a Heparin column and concentrating a fraction corresponding to a peak due to each of TRACP 5a and TRACP 5b. As TRACP 5a, there was used a sample having such a concentration that its absorbance was 0.8 at pH 5.6 (the optimum for TRACP 5a). As TRACP 5b, there was used a sample having such a concentration that its absorbance was 0.8 at pH 6.4 (the optimum for TRACP 5b). As to a method for the assay, a plate having an anti-TRACP 5b antibody Trk27 immobilized thereon was used and 100 μl of each sample was added to each well and stirred with shaking at room temperature for 1 hour. Then, the reaction solution was discarded and each well was washed three times with 200 μl of Tris buffer containing 0.05% Tween 20. Thereafter, 100 μl of the substrate buffer solution was added to each well and shaken for 30 seconds, followed by incubation in an incubator at 37° C. for 1 hour. Then, 50 μl of 0.2N NaOH was added to each well to terminate the enzyme reaction and the absorbance of the reaction solution was measured with a microtiter plate reader. Under such conditions, the optimum pH for TRACP 5b was about 6.4 and that for TRACP 5a was 5.6.
(§2) Absorbance values due to the reaction of a buffer solution containing a substrate CNPP with each of TRACP 5a and TRACP 5b at pHs 6.2, 6.4, 6.6 and 6.8 were compared with results obtained in a comparative example using a buffer solution (pH 6.1) containing, as a substrate, PNPP that is considered suitable for the assay of TRACP 5b. According to the method disclosed in Japanese Patent Application Kohyo No. 2002-510050, the composition of this PNPP substrate buffer solution was as follows: PNPP 8 mM, sodium acetate 0.1M, sodium tartrate 40 mM, pH 6.1. As a sample of TRACP 5b, the same sample as in Example 1 was used. As a sample of TRACP 5a, a sample was used which had been prepared so that in the comparative example (PNPP was used at pH 6.1), a value for TRACP 5a might be one-tenth that for TRACP 5b according to the data disclosed in Japanese Patent Application Kohyo No. 2002-510050. The same assay procedure as in Example 1 was carried out and absorbance was used as an indication of the enzymatic activity.

In data set [2] the target is T1, TRACP 5a (Homo sapiens, UniProt P13686).
T1 construct: TRACP 5a derived from human serum and eluted from a HiTrap Heparin HP column; from tissue; host or cells: human serum, heparin column fraction
T1 sequence (P13686 22-325): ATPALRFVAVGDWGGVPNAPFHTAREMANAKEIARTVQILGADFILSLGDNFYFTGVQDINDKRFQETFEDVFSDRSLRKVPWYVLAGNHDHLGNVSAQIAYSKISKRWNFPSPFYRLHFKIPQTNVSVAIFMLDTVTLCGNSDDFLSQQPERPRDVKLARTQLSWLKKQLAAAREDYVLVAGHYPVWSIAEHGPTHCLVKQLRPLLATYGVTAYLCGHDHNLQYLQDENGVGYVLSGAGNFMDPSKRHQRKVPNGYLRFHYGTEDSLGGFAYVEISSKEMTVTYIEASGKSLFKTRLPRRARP
As to the kind of experiment: Enzymatic activity of TRACP 5a bound to immobilized anti-TRACP 5b antibody plate, end-point absorbance. The data set is classed as biochemical. On the procedure:
as §1, §2

Data set [3] concerns TRACP 5b. As to the kind of experiment: Enzymatic activity of TRACP 5b bound to immobilized anti-TRACP 5b antibody plate, end-point absorbance. The data set is classed as biochemical, human. As to conditions: pH 6.9.
The target of data set [4] is T2, TRACP 5b (Homo sapiens, UniProt P13686).
T2 sequence (P13686 22-325): T1 sequence (P13686 22-325)
As to conditions: pH 5.8; according to Clin. Chem., 47(1), 74-80; cited from earlier work.

Data set [5] addresses T1, TRACP 5a. As to conditions: pH 5.2; according to Clin. Chem., 47(1), 74-80; cited from earlier work.
Substrate in data set [6]: O=[N+]([O-])c1ccc(OP(=O)(O)O)c(Cl)c1
As to the kind of experiment: Km measurement of substrate with TRACP 5b. As to conditions: other: pH 6.4. The data set is classed as biochemical, human. The procedure: (§3) In order to investigate the difference between TRACP 5b and TRACP 5a in reactivity with 2-chloro-4-nitrophenylphosphoric acid (CNPP), Km for each of them was measured.
(§4) That is, for the assay of TRACP 5b, CNPP used in the present invention is more advantageous than PNPP from the viewpoint of affinity and specificity.

Substrate in data set [7]: O=[N+]([O-])c1ccc(OP(=O)(O)O)c(Cl)c1
As to the kind of experiment: Km measurement of substrate with TRACP 5a. As to conditions: other: pH 5.6. The data set is classed as biochemical, human. On the procedure: as §3, §4

Setting [8] is: pH 6.1, PNPP 8 mM, sodium acetate 0.1M, sodium tartrate 40 mM.

Regarding `O=[N+]([O-])c1ccc(OP(=O)(O)O)c(Cl)c1` [CNPP, 2-chloro-4-nitrophenylphosphoric acid], the “TRACP 5b/5a ratio” value came out at 13 in data set [1] (pH 6.2), 17 in data set [1] (pH 6.4), 18 in data set [1] (pH 6.6) and 16 in data set [3]. The “absorbance (enzymatic activity), sample TRACP 5b” value in data set [1] (pH 6.2) came to 0.802; in data set [1] (pH 6.4) it was 0.811; in data set [1] (pH 6.6), 0.674; in data set [3], 0.401. In addition, the “optimum pH for TRACP 5a” value in data set [2] (CNPP 5 mM, Mes 0.1 M, sodium tartrate 40 mM, pH 5.6 to 6.8, 37° C. 1 hour) stood at 5.6. In addition, the “absorbance (enzymatic activity), sample TRACP 5a” value in data set [2] (pH 6.2) was 0.062; in data set [2] (pH 6.4) it was 0.047; in data set [2] (pH 6.6), 0.038; in data set [2] (pH 6.9) it was 0.025.

The term Km denotes the substrate concentration at which the rate is half of its maximum. Regarding `O=[N+]([O-])c1ccc(OP(=O)(O)O)cc1` [PNPP, p-nitrophenylphosphoric acid, reference compound], in data set [1] (setting [8]), the “TRACP 5b/5a ratio” value is 10 and the “absorbance (enzymatic activity), sample TRACP 5b” value was 0.981. The “absorbance (enzymatic activity), sample TRACP 5a” value in data set [2] (pH 6.1, PNPP 8 mM, sodium acetate 0.1M, sodium tartrate 40 mM, 5a sample prepared to give one-tenth of 5b value) is on record as 0.098. Further, the Km in data set [4] was 7000 µM. Also, the Km in data set [5] was 1900 µM.

B1: TRACP 5b (Homo sapiens) (protein)
chain: T1 sequence (P13686 22-325)
With B1, the Km in data set [6] was 1500 µM.

B2: TRACP 5a (Homo sapiens) (protein)
chain: T1 sequence (P13686 22-325)
notes: TRACP 5a derived from human serum and eluted from a HiTrap Heparin HP column; from tissue; host or cells: human serum, heparin column fraction
As for B2, in data set [7], the Michaelis-Menten constant (Km) is 3500 µM.
